Assay results reported in patent US10392392B2, “Substituted imidazo[1,2-B]pyridazines as protein kinase inhibitors” (Tolero Pharmaceuticals, Inc., priority 2011, dated 2019).

Experiments:
MOLM-13 = assay: In vitro viability assay, MOLM-13; format: cell-based
Method: (§1) Adherent or suspension cancer cell lines were seeded at 2000-5000 cells/well in a 96-well plate, or 1000-2000 cells/well in a 384-well plate. Suspension cells were treated with drug the same day as seeding, while adherent cells were incubated overnight at 37° C. in 5% CO2 prior to drug treatment. All cells were treated for 72 hours, then lysed with ATPlite (Perkin Elmer) and measured on an Envision microplate reader. IC50 values were determined using GraphPad Prism software.
(§2) Over 35 cell lines were tested, and the most sensitive cell lines from various indications were selected and verified by multiple EC50 determinations (FIG. 6). […] Anti-proliferative activity using PIM-2 shRNA against FLT3-ITD driven leukemia lines has been observed (Adam (2006) Cancer Res 66:3828-35 data not shown).

MV-4-11 = assay: In vitro viability assay, MV-4-11; format: cell-based
Method: as §1, §2

NIH-3T3/PIM-2 xenografts = assay: NIH-3T3/PIM-2 over-expression tumor xenograft; format: in vivo, mouse; conditions: mice bearing NIH-3T3 or NIH-3T3/PIM-2 xenografts
Description: (§3) Male and female Nu/Nu mice were purchased from Harlan Sprague Dawley (Indianapolis, Ind.). Female Nu/Nu mice were used for all xenograft evaluations with the exception of the PC-3 xenografts where male Nu/Nu mice were used. Cell lines were expanded in vitro in complete media, and if adherent were harvested by trypsin-EDTA, centrifuged and resuspended in PBS 1:1 with Matrigel (BD Bioscienes). Cells were inoculated subcutaneously in the right hind flank of mice. When tumors reached 100-200 mm^3 by caliper measurement, mice were randomized and dosing of SGI-9481 or vehicle control began and continued every day for 5 days (QD×5) with 2 days off for 18-21 days. Tumor volumes and body weights were determined twice a week, and tumor weights were measured at the completion of the translational xenograft studies.
(§4) The prostate cancer cell line 22RV1 engineered to over-express PIM-1 as previously described (Mumenthaler, et al, Mol. Cancer Ther., 2009, 8(10)2882-93) was evaluated in vivo. A second model engineered to over-express PIM-2 was established using the NIH-3T3 mouse fibroblast cell line.

[1] = test system: ML-2 cells (wild-type FLT3) xenografts; assay: ML-2 (wild-type FLT3) mouse xenograft; format: in vivo
Description: as §3

UM-UC-3 cells = assay: Colony formation assay, UM-UC-3; format: cell-based
Method: (§5) For shRNA growth experiments, 500 UM-UC-3 cells were seeded in a 12-well plate 48 hours post-transduction and cultured for 8-10 days at 37° C. in 5% CO2. Cells were fixed with 4% paraformaldehyde in PBS, washed twice with PBS, and stained with a crystal violet solution (1% crystal violet, 10% ethanol in water). Stained cells were washed thrice with water, and imaged after drying on a GelCount colony counter (Oxford Optronix Ltd., Oxford, UK). Total staining intensity per well was determined by lysis of cells with 200 μl of Triton X-100 lysis buffer (1% Triton X-100, 50 mM Tris-HCl pH 7.4, 150 mM NaCl, 1 mM EDTA). Lysates (100 μl) from each well were transferred to a clear 96-well plate and absorbance at 560 nm was determined on an Envision microplate reader. IC50 values were determined using GraphPad Prism software. For compound treated PC-3 and UM-UC-3, cells were seeded and stained as above, but were incubated with various concentrations of test compound or DMSO one day after seeding.
(§6) Translational models were also explored for PIM dependency using shRNA knockdown. The UM-UC-3 urinary epithelial bladder carcinoma cell line was used to verify and validate dependency on PIM-1 for growth. […] Reduction of PIM-1 mRNA and growth also were observed using both PIM-1 and PIM-2 shRNA in the androgen-independent prostate carcinoma cell line PC-3 (data not shown).

[2] = Pharmacokinetic studies of PC-3 tumor-burdened mice; format: in vivo, mouse; conditions: 200 mg/kg dosing
22RV1/PIM-1 xenografts = assay: 22RV1/PIM-1 over-expression tumor xenograft; format: in vivo, mouse; conditions: mice bearing 22RV1 or 22RV1/PIM-1 xenografts
Description: as §3, §4

PC-3 cells = assay: Colony formation assay, PC-3; format: cell-based
Method: as §5, §6

UM-UC-3 xenograft tumors = assay: Established UM-UC-3 mouse xenograft tumors; format: in vivo; conditions: oral dosing of 200 mg/kg
Description: as §3, with “When tumors reached 100-200 mm^3 by caliper measurement, mice were randomized and dosing of SGI-9481 or vehicle control began and continued every day for 5 days (QD×5) with 2 days off for 18-21 days.” left out

PC-3 xenograft tumors = assay: Established PC-3 mouse xenograft tumors; format: in vivo; conditions: oral dosing of 200 mg/kg
Description: as §3, with “When tumors reached 100-200 mm^3 by caliper measurement, mice were randomized and dosing of SGI-9481 or vehicle control began and continued every day for 5 days (QD×5) with 2 days off for 18-21 days.” left out

| SMILES | sensitivity of cell line (MOLM-13) | sensitivity of cell line (MV-4-11) | changes in body weight (NIH-3T3/PIM-2 xenografts) | tumor growth [1] | colony growth (UM-UC-3 cells) | plasma levels [2] | tumor tissue levels [2] | changes in body weight (22RV1/PIM-1 xenografts) | colony growth (PC-3 cells) | changes in body weight or gross adverse toxicity (UM-UC-3 xenograft tumors) | tumor growth measured by volume (caliper) and by final tumor weight (UM-UC-3 xenograft tumors) | changes in body weight or gross adverse toxicity (PC-3 xenograft tumors) | tumor growth measured by volume (caliper) and by final tumor weight (PC-3 xenograft tumors) |
| --- | --- | --- | --- | --- | --- | --- | --- | --- | --- | --- | --- | --- | --- |
| CC(C)(O)[C@H]1CC[C@H](Nc2ccc3ncc(-c4cccc(C(F)(F)F)c4)n3n2)CC1 [SGI-9481] | particularly sensitive | particularly sensitive | – | – | – | – | – | – | – | – | – | – | – |
| CC(C)(O)[C@H]1CC[C@H](Nc2ccc3ncc(-c4cccc(C(F)(F)F)c4)n3n2)CC1 [Compound 8-31] | – | – | No significant changes | significant tumor growth inhibition | reduced | above the in vitro proliferation EC50 | above the in vitro proliferation EC50 | No significant changes | reduced | no significant changes | significantly reduced | no significant changes | significantly reduced |
